Drawing on patent publication US12060351B2, “Thiadiazole IRAK4 inhibitors” (Gilead Sciences, Inc., priority 2018, dated 2024), this text covers EC50 and IC50 for 17 molecules.

Where two headings read alike, the source gives them in different places.

Test [1] concerns TNFα. Briefly: IRAK4 Monocyte TNFα Cell Based Assay (LPS-stimulated, TR-FRET TNFα detection). Further details: species or system human. The settings on record: Homo sapiens, Monocyte, read-out: EC50 MONO TNF HTRF. The gist of the method:
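Monocytes (5,000 cells/well) treated with compound (0.1% DMSO) for 1 hour at 37° C, then stimulated with 50 pg/ml LPS for 4 hours. TNFα in medium quantified by TR-FRET two-antibody detection after overnight room-temperature incubation. Percent of control calculated against unstimulated (0%) and LPS-stimulated (100%) cells.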
(TR-FRET usually uses a lanthanide donor and a delayed reading to cut background.)

For test [2], the target named is T1, IRAK4 enzyme (Homo sapiens, UniProt Q9NWZ3).
T1 construct: purchased Carna Biosciences, Chuo-ku, Kobe, Japan
T1 sequence (Q9NWZ3 1-460): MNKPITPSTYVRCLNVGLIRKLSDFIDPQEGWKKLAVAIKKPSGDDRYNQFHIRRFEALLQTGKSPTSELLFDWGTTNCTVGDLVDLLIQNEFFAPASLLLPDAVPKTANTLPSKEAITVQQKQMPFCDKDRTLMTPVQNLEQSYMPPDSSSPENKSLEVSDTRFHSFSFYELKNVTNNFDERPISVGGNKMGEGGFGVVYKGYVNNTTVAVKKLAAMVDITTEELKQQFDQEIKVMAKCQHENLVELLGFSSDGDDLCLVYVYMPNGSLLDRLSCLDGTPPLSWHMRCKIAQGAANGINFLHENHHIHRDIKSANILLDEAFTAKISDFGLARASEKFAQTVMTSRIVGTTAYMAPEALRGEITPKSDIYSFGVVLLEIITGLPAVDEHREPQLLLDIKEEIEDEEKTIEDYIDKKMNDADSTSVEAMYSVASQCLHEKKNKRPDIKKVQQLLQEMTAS
Briefly: IRAK4 Biochemical Assay (TR-FRET, STK1 KinEASE). The settings on record: 500 μM ATP, Table 2 second part (compounds 33-343), read-out: IC50 IRAK4-HTBS. The gist of the method: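 Human IRAK4 (0.75 nM) preincubated 15 min with compound and 2 μM STK1 peptide, then reacted 120 min at room temperature with 500 μM ATP in HEPES pH 7.0 buffer with MgCl2 and DTT. EDTA stop with Cryptate anti-phosphopeptide antibody and tracer, 60 min; TR-FRET read as 665/615 nm ratio.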

Where [3] appears, read: human monocytes, LPS-stimulated, Table 2 second part (compounds 33-343).

As for `COC(=O)NC[C@H]1C[C@H](Nc2cc(-c3ccc4cc(C#N)cnn34)ncc2-c2nnc(N3C[C@H]4CC[C@@H](C3)[C@@H]4NC(C)=O)s2)C1` [Example 52, methyl (((1R,3r)-3-((5-(5-((1R,5S,8S)-8-acetamido-3-azabicyclo[3.2.1]octan-3-yl)-1,3,4-thiadiazol-2-yl)-2-(3-cyanopyrrolo[1,2-b]pyridazin-7-yl)pyridin-4-yl)amino)cyclobutyl)methyl)carbamate], the EC50 in test [1] (setting [3]) worked out at 4.1 nM. The IC50 in test [2] was 0.82 nM.

Consider `COC(=O)N[C@H]1CC[C@H](Nc2cc(-c3ccc4cc(C#N)cnn34)ncc2-c2nnc(N3C[C@H]4CC[C@@H](C3)[C@@H]4NC(C)=O)s2)CC1` [Example 54, methyl ((1R,4r)-4-((5-(5-((1R,5S,8S)-8-acetamido-3-azabicyclo[3.2.1]octan-3-yl)-1,3,4-thiadiazol-2-yl)-2-(3-cyanopyrrolo[1,2-b]pyridazin-7-yl)pyridin-4-yl)amino)cyclohexyl)carbamate], for which the EC50 in test [1] (setting [3]) was 2.4 nM. The IC50 in test [2] was found to be 0.73 nM.

In the case of `CC(=O)N[C@H]1C[C@H]2CC[C@@H](C1)N2c1nnc(-c2cnc(-c3ccc4cc(C#N)cnn34)cc2NC(C)C)s1` [Example 55, N-((1R,3r,5S)-8-(5-(6-(3-cyanopyrrolo[1,2-b]pyridazin-7-yl)-4-(isopropylamino)pyridin-3-yl)-1,3,4-thiadiazol-2-yl)-8-azabicyclo[3.2.1]octan-3-yl)acetamide], in test [1], the EC50 came to 115 nM. For the same molecule, the IC50 in test [2] worked out at 0.54 nM.

Consider `CC(=O)N[C@@H]1C[C@H]2CC[C@@H](C1)N2c1nnc(-c2cnc(-c3ccc4cc(C#N)cnn34)cc2NC(C)C)s1` [Example 56, N-((1R,3s,5S)-8-(5-(6-(3-cyanopyrrolo[1,2-b]pyridazin-7-yl)-4-(isopropylamino)pyridin-3-yl)-1,3,4-thiadiazol-2-yl)-8-azabicyclo[3.2.1]octan-3-yl)acetamide], for which the concentration giving a half-maximal response (EC50) in test [1] stood at 8.3 nM. In test [2], the IC50 stood at 0.49 nM.

`CC(C)Nc1cc(-c2ccc3cc(C#N)cnn23)ncc1-c1nnc(N2C[C@H]3CC[C@@H](C2)[C@@H]3NC(=O)N2CCOCC2)s1` [Example 57, N-((1R,5S,8s)-3-(5-(6-(3-cyanopyrrolo[1,2-b]pyridazin-7-yl)-4-(isopropylamino)pyridin-3-yl)-1,3,4-thiadiazol-2-yl)-3-azabicyclo[3.2.1]octan-8-yl)morpholine-4-carboxamide]: in test [1] (setting [3]), the EC50 was found to be 6.8 nM. Further, in test [2], the IC50 was 1.16 nM.

Turning to `CC(C)Nc1cc(-c2ccc3cc(C#N)cnn23)ncc1-c1nnc(N2C[C@H]3CC[C@@H](C2)[C@@H]3NS(C)(=O)=O)s1` [Example 58, N-((1R,5S,8s)-3-(5-(6-(3-cyanopyrrolo[1,2-b]pyridazin-7-yl)-4-(isopropylamino)pyridin-3-yl)-1,3,4-thiadiazol-2-yl)-3-azabicyclo[3.2.1]octan-8-yl)methanesulfonamide], the EC50 in test [1] (setting [3]) was 9.3 nM. Besides, the IC50 in test [2] is 1.88 nM.

In the case of `COC(=O)N[C@@H]1[C@@H]2CC[C@H]1CN(c1nnc(-c3cnc(-c4ccc5cc(C#N)cnn45)cc3NC(C)C)s1)C2` [Example 59, methyl ((1R,5S,8s)-3-(5-(6-(3-cyanopyrrolo[1,2-b]pyridazin-7-yl)-4-(isopropylamino)pyridin-3-yl)-1,3,4-thiadiazol-2-yl)-3-azabicyclo[3.2.1]octan-8-yl)carbamate], the EC50 in test [1] (setting [3]) is 14.7 nM. In test [2], the IC50 amounted to 1.97 nM.

`CC(C)Nc1cc(-c2ccc3cc(C#N)cnn23)ncc1-c1nnc(N2C[C@H]3CC[C@@H](C2)[C@@H]3N)s1` [Example 60, 7-(5-(5-((1R,5S,8s)-8-amino-3-azabicyclo[3.2.1]octan-3-yl)-1,3,4-thiadiazol-2-yl)-4-(isopropylamino)pyridin-2-yl)pyrrolo[1,2-b]pyridazine-3-carbonitrile]: the EC50 in test [1] (setting [3]) turned out to be 8.5 nM. The IC50 in test [2] is 0.97 nM.

In the case of `CC(C)Nc1cc(-c2ccc3cc(C#N)cnn23)ncc1-c1nnc(N2C[C@H]3CC[C@@H](C2)[C@@H]3NC(=O)C(C)(C)O)s1` [Example 85, N-((1R,5S,8s)-3-(5-(6-(3-cyanopyrrolo[1,2-b]pyridazin-7-yl)-4-(isopropylamino)pyridin-3-yl)-1,3,4-thiadiazol-2-yl)-3-azabicyclo[3.2.1]octan-8-yl)-2-hydroxy-2-methylpropanamide], in test [1] (setting [3]), the EC50 is 3.3 nM. Further, the IC50 in test [2] was determined as 1.04 nM.

With `C[C@H](C#N)Nc1cc(-c2ccc3cc(C#N)cnn23)ncc1-c1nnc(N2C[C@H]3CC[C@@H](C2)[C@@H]3NC(=O)C(C)(C)O)s1` [Example 86, N-((1R,5S,8S)-3-(5-(4-(((R)-1-cyanoethyl)amino)-6-(3-cyanopyrrolo[1,2-b]pyridazin-7-yl)pyridin-3-yl)-1,3,4-thiadiazol-2-yl)-3-azabicyclo[3.2.1]octan-8-yl)-2-hydroxy-2-methylpropanamide], in test [1] (setting [3]), the EC50 is 0.6 nM. The IC50 in test [2] came to 0.65 nM.

For `CC(C)(O)C(=O)N[C@@H]1[C@@H]2CC[C@H]1CN(c1nnc(-c3cnc(-c4ccc5cc(C#N)cnn45)cc3NC3COC3)s1)C2` [Example 87, N-((1R,5S,8s)-3-(5-(6-(3-cyanopyrrolo[1,2-b]pyridazin-7-yl)-4-(oxetan-3-ylamino)pyridin-3-yl)-1,3,4-thiadiazol-2-yl)-3-azabicyclo[3.2.1]octan-8-yl)-2-hydroxy-2-methylpropanamide], the EC50 in test [1] (setting [3]) was determined as 2.1 nM. The IC50 in test [2] turned out to be 0.6 nM.

On to `CC(C)Nc1cc(-c2ccc3cc(C#N)cnn23)ncc1-c1nnc(N2C[C@H]3CC[C@@H](C2)[C@@H]3NC(=O)[C@H]2C[C@](C)(O)C2)s1` [Example 92, (1r,3R)-N-((1R,5S,8s)-3-(5-(6-(3-cyanopyrrolo[1,2-b]pyridazin-7-yl)-4-(isopropylamino)pyridin-3-yl)-1,3,4-thiadiazol-2-yl)-3-azabicyclo[3.2.1]octan-8-yl)-3-hydroxy-3-methylcyclobutane-1-carboxamide], for which the EC50 in test [1] (setting [3]) stood at 5 nM. Also, the half-inhibitory concentration (IC50) in test [2] was determined as 1.72 nM.

As to `CC(C)Nc1cc(-c2ccc3cc(C#N)cnn23)ncc1-c1nnc(N2C[C@H]3CC[C@@H](C2)[C@@H]3NC(=O)[C@H]2C[C@@](C)(O)C2)s1` [Example 93, (1s,3S)-N-((1R,5S,8s)-3-(5-(6-(3-cyanopyrrolo[1,2-b]pyridazin-7-yl)-4-(isopropylamino)pyridin-3-yl)-1,3,4-thiadiazol-2-yl)-3-azabicyclo[3.2.1]octan-8-yl)-3-hydroxy-3-methylcyclobutane-1-carboxamide], the EC50 in test [1] (setting [3]) is 5.9 nM. The IC50 in test [2] worked out at 1.78 nM.

For `CC(C)Nc1cc(-c2ccc3cc(C#N)cnn23)ncc1-c1nnc(N2C[C@H]3CC[C@@H](C2)[C@@H]3NC(=O)C2(C)COC2)s1` [Example 94, N-((1R,5S,8s)-3-(5-(6-(3-cyanopyrrolo[1,2-b]pyridazin-7-yl)-4-(isopropylamino)pyridin-3-yl)-1,3,4-thiadiazol-2-yl)-3-azabicyclo[3.2.1]octan-8-yl)-3-methyloxetane-3-carboxamide], the EC50 in test [1] (setting [3]) turned out to be 4 nM. The IC50 in test [2] came to 0.9 nM.

In the case of `CC(C)Nc1cc(-c2ccc3cc(C#N)cnn23)ncc1-c1nnc(N2C[C@H]3CC[C@@H](C2)[C@@H]3NC(=O)C2(C)CCOCC2)s1` [Example 95, N-((1R,5S,8s)-3-(5-(6-(3-cyanopyrrolo[1,2-b]pyridazin-7-yl)-4-(isopropylamino)pyridin-3-yl)-1,3,4-thiadiazol-2-yl)-3-azabicyclo[3.2.1]octan-8-yl)-4-methyltetrahydro-2H-pyran-4-carboxamide], the EC50 in test [1] (setting [3]) was determined as 4.1 nM. Moreover, the IC50 in test [2] is 0.7 nM.

On to `CC(C)Nc1cc(-c2ccc3cc(C#N)cnn23)ncc1-c1nnc(N2C[C@H]3CC[C@@H](C2)[C@@H]3NC(=O)C(C)(C)C(=O)O)s1` [Example 97, 3-(((1R,5S,8s)-3-(5-(6-(3-cyanopyrrolo[1,2-b]pyridazin-7-yl)-4-(isopropylamino)pyridin-3-yl)-1,3,4-thiadiazol-2-yl)-3-azabicyclo[3.2.1]octan-8-yl)amino)-2,2-dimethyl-3-oxopropanoic acid], for which the EC50 in test [1] (setting [3]) worked out at 21.7 nM. In addition, the half-inhibitory concentration (IC50) in test [2] amounted to 0.82 nM.

Consider `CC(C)Nc1cc(-c2ccc3cc(C#N)cnn23)ncc1-c1nnc(N2C[C@H]3CC[C@@H](C2)[C@@H]3NC(=O)CN=S(C)(C)=O)s1` [Example 98, N-((1R,5S,8s)-3-(5-(6-(3-cyanopyrrolo[1,2-b]pyridazin-7-yl)-4-(isopropylamino)pyridin-3-yl)-1,3,4-thiadiazol-2-yl)-3-azabicyclo[3.2.1]octan-8-yl)-2-((dimethyl(oxo)-16-sulfanylidene)amino)acetamide], for which the EC50 in test [1] (setting [3]) was determined as 3.2 nM. In addition, the IC50 in test [2] came to 1.13 nM.

By EC50 is commonly meant the concentration at which the effect is half-maximal. As a reminder, the IC50 is the concentration that gives 50% inhibition.
